Data on two substances can be found in patent US8226943B2, “Antibodies to notch receptors” (OncoMed Pharmaceuticals, Inc., priority 2008, dated 2012).

The target in assay [1] is T1, human Notch1 with residues 382-386 mutated to the corresponding human Notch2 residues (Homo sapiens, UniProt P46531, E383K/N382H/N386L/S385A).
T1 construct: several point mutants were created within full-length Notch1; expressed in transfected cells; host or cells: HEK 293, transient, co-transfected with GFP
The assay can be described thus: FACS binding to mutant human Notch1 carrying Notch2 residues. Particulars: HEK 293 transiently transfected. The method, then:
A comparison analysis of the EGF 10 regions of human Notch1, Notch2, and Notch4 and the EGF 9 region of human Notch3 (the equivalent of EGF 10 in the other Notch receptors) was performed to determine likely binding sites for 59R1 (FIG. 14A). As a result of the analysis, several point mutants were created within full-length Notch2, converting residues within EGF 10 to the corresponding amino acids in human Notch 1. Also, conversely, point mutations were made in hNotch1 EGF 10 converting residues to the corresponding hN2 residues. Mutants in full-length Notch sequences were generated by QuikChange® mutagenesis (Stratagene) and verified by sequencing. Binding to the mutants was determined by FACS analysis (FIGS. 14B and 14C). 59R1 was detected by PE-conjugated goat anti-human Fc gamma specific antibody (Jackson Immunochemicals, #109-116-170). […] The corresponding residues in hNotch3 are histidine 361, alanine 364, and isoleucine 365.
The binding epitope of 59R5 was determined. As was described in Example 3 for analysis of antibody 59R1, several point mutants were created within full-length Notch1, converting residues within EGF10 to the corresponding amino acids in human Notch 2. […] 59R1 and 59R5 were detected by PE-conjugated goat anti-human Fc gamma specific antibody (Jackson Immunochemicals, #109-116-170). […]
Background: A flow cytometer gives signals particle by particle.

Assay [2] has as its target T2, human Notch1 (Homo sapiens, UniProt P46531).
T2 construct: expressed in transfected cells; host or cells: HEK-293, transient, co-transfected with GFP
As to the kind of experiment: FACS binding to transiently transfected HEK-293 cells, human Notch1. Here is the method:
The ability of the 59R1 IgG2 antibody to cross-react with other Notch receptors was determined by FACS assay using HEK-293 cells transiently transfected with the human Notch1, Notch2, Notch3 or Notch4 expression plasmid and green fluorescent protein (GFP) as a transfection control. GFP positive cells indicated expression of the transgene. The 59R1 IgG2 was added to the cells at 2 μg/ml and detected by PE-conjugated goat anti-human Fc gamma specific (Jackson Immunochemicals). All Notch constructs were full length.
The binding epitope of 59R5 was determined. As was described in Example 3 for analysis of antibody 59R1, several point mutants were created within full-length Notch1, converting residues within EGF10 to the corresponding amino acids in human Notch 2. Mutants in full-length Notch sequences were generated by QuikChange® mutagenesis (Stratagene) and verified by sequencing. HEK 293 cells were transiently transfected with expression vectors encoding human Notch2, human Notch1, or human Notch1 with residues 382-386 mutated to the corresponding human Notch2 residues. Cells were also co-transfected with a plasmid encoding green fluorescent protein (GFP) to mark those cells that received transfected plasmid. […] 59R1 and 59R5 were detected by PE-conjugated goat anti-human Fc gamma specific antibody (Jackson Immunochemicals, #109-116-170). […]

Assay [3] deals with Colo-205 colon tumor cells. As to the kind of experiment: Colo-205 colon tumor xenograft growth. The class given is in vivo, mice. Particulars: for Colo205 Tumor vol relative to the control group: 15 mg/kg once per week; for growth of Colo205 colon tumors: 15 mg/kg once per week after tumors established. The method, then: In one experiment, the 1×10^7 viable Colo-205 colon tumor cells were injected into 6-8 week-old immunodeficient bg/nu XID female mice on a Swiss CD-1 background. Tumors were allowed to grow to a size of between 65 to 200 mm^3 after which mice were randomized (n=10 per experimental group), and antibodies administration begun. Animals were treated with 15 mg/kg of either control 1B7.11 antibodies or anti-Notch2/3 59R1 antibodies once weekly. Tumor size was measured twice weekly, and tumor volume was calculated as described (see Michieli et al., 2004, Cancer Cell, 6:61-73).
The 59R1 IgG2 antibody was also tested in vivo in the breast tumor xenograft lines OMP-B34, OMP-B39, OMP-B44, PE13, and UM-T1, the pancreas tumor xenograft line OMP-PN8, and the colon tumor xenograft line OMP-C8. These tumor xenograft lines were established by adhering to procedures described in Al-Hajj et al., 2003, Proc. Natl. Acad. Sci. USA, 100:3983-3988. Female NOD/SCID immuno-compromised mice 7-10 weeks old were used for the establishment of the breast tumor xenografts and male NOD/SCID mice were used for the OMP-Pn8 and OMP-C8 tumor-models (Harlan, Indianapolis, Ind.). The 59R1 IgG2 antibody was also tested in vivo in a Colo-205 colon tumor xenograft model. Female immunodeficient bg/nu XID mice on a Swiss CD-1 background were used for the Colo-205 xenograft tumor model. In case of the breast cancer models, slow-releasing estrogen pellets (0.36 mg) had to be implanted. Mice were subcutaneously injected on the right flank with 50,000 (OMP-B34, OMP-B39, OMP-B44, PE13, and UM-T1) or 1×10^7 (Colo-205) viable cells, respectively, in a mixture of PBS (without magnesium or calcium) and Matrigel at a 1:1 ratio. The injected total volume per mouse was 200 μl with 50% being Matrigel. Once the tumor had reached a size between 65-200 mm^3, the mice were randomized. Antibodies were administered weekly and tumors measured twice weekly. LZ1 (a human antibody that recognizes lyzozyme) or 1B711 (a murine IgG1 antibody that recognizes the hapten trinitrophenol) was used as a control antibody for treatment of each tumor type. Tumor volume was calculated as described Al-Hajj et al. (2003). Data are expressed as the mean and the mean±S.E.M. Group means were compared using Student's two-tailed, unpaired t-test. […] All statistical analysis was performed using Microsoft EXCEL and Graph Pad PRISM.
In another embodiment, NOD/SCID mice were injected with Colo205 colon tumor cells. The mice were treated with anti-Notch2/3 antibody 59R1, anti-Notch2/3 antibody 59R5 or control antibody. Antibodies were dosed at 15 mg/kg once per week after tumors had been established.
Tumor volumes and p values for each experiment are shown relative to the control group. The PE13, C28 and Colo205 studies were carried out as described in Example 14. PN8 studies were carried out as described above. For the PN8 experiment, the control is gemcitabine alone and values for 59R1 and 59R5 are the combinations with gemcitabine. Antibodies were dosed once per week at 15 mg/kg for all experiments.

The mark [4] stands for this setting: established tumors, 15 mg/kg once a week.

T1 sequence (P46531 19-2555 N382H/E383K/S385A/N386L): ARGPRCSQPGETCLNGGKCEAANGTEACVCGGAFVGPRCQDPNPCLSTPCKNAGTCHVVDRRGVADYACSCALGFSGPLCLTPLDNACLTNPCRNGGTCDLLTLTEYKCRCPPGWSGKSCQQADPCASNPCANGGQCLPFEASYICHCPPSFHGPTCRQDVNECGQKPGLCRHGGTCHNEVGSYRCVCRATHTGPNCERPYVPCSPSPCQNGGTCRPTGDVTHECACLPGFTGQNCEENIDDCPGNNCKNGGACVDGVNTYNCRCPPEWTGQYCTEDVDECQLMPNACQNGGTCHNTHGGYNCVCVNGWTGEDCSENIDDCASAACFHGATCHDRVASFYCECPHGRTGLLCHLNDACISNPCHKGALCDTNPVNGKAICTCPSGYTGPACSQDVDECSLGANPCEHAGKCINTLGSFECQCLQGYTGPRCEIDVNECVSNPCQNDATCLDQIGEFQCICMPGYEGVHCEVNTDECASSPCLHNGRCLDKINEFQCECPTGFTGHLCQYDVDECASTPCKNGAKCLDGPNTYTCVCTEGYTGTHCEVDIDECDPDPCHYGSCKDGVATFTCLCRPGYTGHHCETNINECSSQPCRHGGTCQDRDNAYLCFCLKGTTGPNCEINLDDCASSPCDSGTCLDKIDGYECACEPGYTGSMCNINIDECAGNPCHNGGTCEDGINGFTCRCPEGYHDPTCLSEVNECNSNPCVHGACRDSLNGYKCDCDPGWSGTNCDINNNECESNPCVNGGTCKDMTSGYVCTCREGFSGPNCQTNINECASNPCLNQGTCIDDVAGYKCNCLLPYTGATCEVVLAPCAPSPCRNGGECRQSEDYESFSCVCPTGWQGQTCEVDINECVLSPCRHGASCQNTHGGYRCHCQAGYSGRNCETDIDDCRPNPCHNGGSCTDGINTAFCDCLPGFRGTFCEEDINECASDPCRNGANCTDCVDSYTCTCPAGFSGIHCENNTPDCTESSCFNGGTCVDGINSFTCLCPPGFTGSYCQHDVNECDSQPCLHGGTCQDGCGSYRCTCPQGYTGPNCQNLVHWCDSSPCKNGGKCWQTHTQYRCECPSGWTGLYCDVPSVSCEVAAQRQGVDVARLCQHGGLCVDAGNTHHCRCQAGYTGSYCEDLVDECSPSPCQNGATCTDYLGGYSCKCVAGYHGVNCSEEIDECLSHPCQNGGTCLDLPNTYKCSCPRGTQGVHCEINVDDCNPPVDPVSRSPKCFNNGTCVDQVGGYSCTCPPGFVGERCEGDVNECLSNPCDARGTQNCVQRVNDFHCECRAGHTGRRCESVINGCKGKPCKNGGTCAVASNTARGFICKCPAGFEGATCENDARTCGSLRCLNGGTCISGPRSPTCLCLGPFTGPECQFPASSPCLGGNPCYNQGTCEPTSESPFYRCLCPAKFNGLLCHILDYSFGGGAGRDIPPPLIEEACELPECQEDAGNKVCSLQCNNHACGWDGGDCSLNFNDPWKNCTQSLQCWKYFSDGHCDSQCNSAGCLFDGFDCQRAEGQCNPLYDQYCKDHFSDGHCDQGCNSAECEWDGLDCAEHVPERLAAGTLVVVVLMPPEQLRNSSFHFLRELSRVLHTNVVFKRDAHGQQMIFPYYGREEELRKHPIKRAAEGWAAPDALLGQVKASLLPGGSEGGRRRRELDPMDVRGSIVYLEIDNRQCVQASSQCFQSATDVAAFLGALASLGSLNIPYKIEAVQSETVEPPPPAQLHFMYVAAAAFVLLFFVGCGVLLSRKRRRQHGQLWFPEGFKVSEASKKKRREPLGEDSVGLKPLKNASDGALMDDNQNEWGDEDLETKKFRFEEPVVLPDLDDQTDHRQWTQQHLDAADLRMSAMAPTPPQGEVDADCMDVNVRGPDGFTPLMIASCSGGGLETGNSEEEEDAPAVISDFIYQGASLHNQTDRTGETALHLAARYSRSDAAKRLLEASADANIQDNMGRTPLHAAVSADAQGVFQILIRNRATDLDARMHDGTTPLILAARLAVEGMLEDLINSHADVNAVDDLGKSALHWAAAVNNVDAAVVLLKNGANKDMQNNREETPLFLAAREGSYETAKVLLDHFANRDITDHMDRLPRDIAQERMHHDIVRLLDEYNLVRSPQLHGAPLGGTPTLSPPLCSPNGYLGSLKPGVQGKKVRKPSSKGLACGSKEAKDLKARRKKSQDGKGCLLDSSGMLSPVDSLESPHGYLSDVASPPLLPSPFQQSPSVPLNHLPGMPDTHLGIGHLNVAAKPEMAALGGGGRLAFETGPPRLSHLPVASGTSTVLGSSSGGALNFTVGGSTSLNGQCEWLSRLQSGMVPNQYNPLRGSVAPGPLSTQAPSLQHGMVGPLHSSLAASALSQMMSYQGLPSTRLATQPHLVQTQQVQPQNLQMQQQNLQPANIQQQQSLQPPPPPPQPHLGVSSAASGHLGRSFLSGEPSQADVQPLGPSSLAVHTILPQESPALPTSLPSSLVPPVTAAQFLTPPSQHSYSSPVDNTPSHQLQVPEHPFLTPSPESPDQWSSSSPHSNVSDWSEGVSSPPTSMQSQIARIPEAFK
T2 sequence (P46531 19-2555): as the sequence (P46531 19-2555 N382H/E383K/S385A/N386L) above, with H364N, K365E, A367S, L368N counted along it

Consider “59R1: human IgG2 antibody binding Notch2 and Notch3; heavy and light chain SEQ ID NO:16 and 18; ATCC PTA-9547”, for which the “FACS binding to mutant hNotch1 with EGF 10 residues mutated to hNotch2 residues 385-389” value in assay [1] is on record as “does bind”. Moreover, the “binding to full-length human Notch1 (FACS)” value in assay [2] is on record as “does not bind significantly”. In addition, in assay [3], the “Colo205 Tumor vol relative to the control group” value was found to be 0.68 and the “growth of Colo205 colon tumors” value was “inhibited”. Moreover, in assay [3] (setting [4]), the “Colo205 tumor growth, combination of 59R1 plus bevacizumab (AVASTIN) versus either alone” value is on record as “even greater inhibition of tumor growth” and the “Colo205 tumor growth, monotherapy relative to control antibody (LZ1)” value is “significantly inhibited growth”. In addition, in assay [3] (established tumors, 15 mg/kg once weekly, control 1B7.11), the “Colo-205 tumor growth compared to control” value is recorded as “significantly reduced”.
“59R5: human antibody that specifically binds human Notch 2 and human Notch 3; heavy and light chain SEQ ID NO:49 and 18; ATCC PTA-10170”: the “FACS binding to mutant hNotch1 with EGF 10 residues mutated to hNotch2 residues 385-389” value in assay [1] was “able to bind”. For the same substance, the “binding to full-length human Notch1 (FACS)” value in assay [2] is listed as “did not bind”. For the same substance, in assay [3], the “Colo205 Tumor vol relative to the control group” value amounted to 0.61 and the “growth of Colo205 colon tumors” value is reported as “inhibited”.
